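Assay format: 96-well plates, 48-hour exposure. TGI: total growth inhibition.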
Assays:
Experiment in all cases: NCI-60 cell line screen, 48 h
[1] = test system: IGROV1 ovarian
[2] = test system: SK-MEL-2 melanoma
[3] = test system: OVCAR-5 ovarian
[4] = test system: SNB-75 CNS
[5] = test system: HOP-18 NSCLC
[6] = test system: TK-10 renal
[7] = test system: UACC-257 melanoma
[8] = test system: UO-31 renal
[9] = test system: SF-268 CNS
[10] = test system: CCRF-CEM leukemia
[11] = test system: RPMI-8226 leukemia
[12] = test system: SR leukemia
[13] = test system: M14 melanoma
[14] = test system: MALME-3M melanoma
[15] = test system: SN12C renal
[16] = test system: SK-MEL-5 melanoma
[17] = test system: A498 renal
[18] = test system: OVCAR-8 ovarian
[19] = test system: MOLT-4 leukemia
[20] = test system: COLO 205 colon
[21] = test system: XF 498 CNS
[22] = test system: ACHN renal
[23] = test system: LOX IMVI melanoma
[24] = test system: HL-60(TB) leukemia
[25] = test system: U251 CNS
[26] = test system: EKVX NSCLC
[27] = test system: SNB-19 CNS
[28] = test system: CAKI-1 renal
[29] = test system: UACC-62 melanoma
[30] = test system: HCC-2998 colon
[31] = test system: HOP-92 NSCLC
[32] = test system: SK-OV-3 ovarian
[33] = test system: RXF 393 renal
[34] = test system: KM12 colon
[35] = test system: HT29 colon
[36] = test system: SF-539 CNS
[37] = test system: OVCAR-3 ovarian
[38] = test system: KM20L2 colon
[39] = test system: SK-MEL-28 melanoma
[40] = test system: HCT-15 colon
[41] = test system: OVCAR-4 ovarian
[42] = test system: HOP-62 NSCLC
[43] = test system: NCI-H23 lung
[44] = test system: DMS 114 small cell lung
[45] = test system: A549 NSCLC
[46] = test system: NCI-H226 lung
[47] = test system: SW-620 colon
[48] = test system: DLD-1 colon
[49] = test system: LXFL 529 NSCLC
[50] = test system: K-562 leukemia
[51] = test system: NCI-H460 lung
[52] = test system: HCT-116 colon
[53] = test system: 786-0 renal
[54] = test system: DMS 273 small cell lung
[55] = test system: SF-295 CNS
[56] = test system: SNB-78 CNS
[57] = test system: M19-MEL melanoma
[58] = test system: NCI-H522 lung

`CC1=C(C(=O)NCc2ccccc2)C(c2ccccc2O)C(C(=O)NCc2ccccc2)=C(C)N1` showed a TGI [1] of 39 µM, a TGI [2] of 32.6 µM and a TGI [3] of 38 µM. The TGI [4] was greater than 71.3 µM, the TGI [5] was 60.1 µM and the TGI [6] was 34 µM. It also gave a TGI [7] greater than 31.6 µM, a TGI [8] of 30.5 µM and a TGI [9] of 55.3 µM. For the same compound, the TGI [10] was 82.9 µM, the TGI [11] was greater than 100 µM and the TGI [12] was greater than 65.9 µM. For the same compound, the TGI [13] was 32.4 µM, the TGI [14] was 30.1 µM and the TGI [15] was 32.3 µM. The TGI [16] was 28.6 µM, the TGI [17] was 33.9 µM and the TGI [18] was 40.9 µM. The TGI [19] was greater than 100 µM, the TGI [20] was 30.9 µM and the TGI [21] was 31.2 µM. For the same compound, the TGI [22] was 30.9 µM, the TGI [23] was 30.1 µM and the TGI [24] was 62.2 µM. It also gave a TGI [25] of 29.5 µM, a TGI [26] of 45.6 µM and a TGI [27] of 42.4 µM. It also gave a TGI [28] of 44.3 µM, a TGI [29] of 34 µM and a TGI [30] of 35.9 µM. The TGI [31] was 48.7 µM, the TGI [32] was 64.9 µM and the TGI [33] was 34.4 µM. The TGI [34] was 31.5 µM, the TGI [35] was 38.5 µM and the TGI [36] was 38.5 µM. The TGI [37] was 31.9 µM, the TGI [38] was 37 µM and the TGI [39] was 35.8 µM. The TGI [40] was 30.2 µM, the TGI [41] was 35.4 µM and the TGI [42] was 39.5 µM. The TGI [43] was 34.1 µM, the TGI [44] was 35.7 µM and the TGI [45] was 44.6 µM. It also gave a TGI [46] of 30.8 µM, a TGI [47] of 32.3 µM and a TGI [48] of 36 µM. It also gave a TGI [49] of 28.7 µM, a TGI [50] of 88.9 µM and a TGI [51] of 39.2 µM. The TGI [52] was 28.5 µM, the TGI [53] was 33.7 µM and the TGI [54] was 31.2 µM. It also gave a TGI [55] of 44.7 µM, a TGI [56] of 95.2 µM and a TGI [57] of 35.7 µM. For the same compound, the TGI [58] was 31.4 µM.

With `COc1cc2c(cc1OC)C(=O)N1CCCC1C(=O)S2` (centres undefined) the TGI [1] was greater than 100 µM, the TGI [2] was greater than 100 µM and the TGI [3] was greater than 100 µM. The TGI [5] was greater than 100 µM, the TGI [6] was greater than 100 µM and the TGI [7] was greater than 100 µM. For the same compound, the TGI [8] was greater than 100 µM, the TGI [9] was greater than 100 µM and the TGI [10] was greater than 100 µM. For the same compound, the TGI [11] was greater than 100 µM, the TGI [12] was greater than 100 µM and the TGI [13] was greater than 100 µM. The TGI [14] was greater than 100 µM, the TGI [15] was greater than 100 µM and the TGI [16] was greater than 100 µM. It also gave a TGI [18] greater than 100 µM, a TGI [19] greater than 100 µM and a TGI [20] greater than 100 µM. The TGI [21] was greater than 100 µM, the TGI [22] was greater than 100 µM and the TGI [23] was greater than 100 µM. The TGI [24] was greater than 100 µM, the TGI [25] was greater than 100 µM and the TGI [26] was greater than 100 µM. For the same compound, the TGI [27] was greater than 100 µM, the TGI [29] was greater than 100 µM and the TGI [30] was greater than 100 µM. It also gave a TGI [31] greater than 100 µM, a TGI [32] greater than 100 µM and a TGI [33] greater than 100 µM. It also gave a TGI [34] greater than 100 µM, a TGI [36] greater than 100 µM and a TGI [37] greater than 100 µM. For the same compound, the TGI [38] was greater than 100 µM, the TGI [39] was greater than 100 µM and the TGI [40] was greater than 100 µM. It also gave a TGI [42] greater than 100 µM, a TGI [43] greater than 100 µM and a TGI [44] greater than 100 µM. The TGI [45] was greater than 100 µM, the TGI [47] was greater than 100 µM and the TGI [48] was greater than 100 µM. It also gave a TGI [49] greater than 100 µM, a TGI [50] greater than 100 µM and a TGI [51] greater than 100 µM. For the same compound, the TGI [52] was greater than 100 µM, the TGI [53] was greater than 100 µM and the TGI [54] was greater than 100 µM. The TGI [55] was greater than 100 µM, the TGI [56] was greater than 100 µM and the TGI [58] was greater than 100 µM.

From PubChem BioAssay (NCI)
